Data: ChEMBL document CHEMBL1144534, “Molecular modeling of some 1H-benzimidazole derivatives with biological activity against Entamoeba histolytica: a comparative molecular field analysis study” (Bioorg Med Chem, 2007)

System: Entamoeba histolytica
Test: Antiamoebic activity against Entamoeba histolytica
Type: functional, organism-based

| Structure (SMILES) | IC50 |
| --- | --- |
| FC(F)(F)c1nc2c(Br)cc(Br)cc2[nH]1 | 50.1 nM |
| FC(F)(F)c1nc2cc(Br)ccc2[nH]1 | 1320 nM |
| FC(F)(F)c1nc2c(Br)c(Br)c(Br)c(Br)c2[nH]1 | 302 nM |
| CSc1nc2ccccc2n1C | 195 nM |
| Cc1nc2ccccc2n1C | 61.7 nM |
| Cn1c(N)nc2cc(Cl)c(Cl)cc21 | 37.2 nM |
| Cn1c(S)nc2cc(Cl)c(Cl)cc21 | 129 nM |
| Cc1nc2cc(Cl)c(Cl)cc2n1C | 12.9 nM |
| FC(F)(F)c1nc2cc(Br)c(Br)cc2[nH]1 | 427 nM |
| O=[N+]([O-])c1cc2nc(C(F)(F)F)[nH]c2cc1[N+](=O)[O-] | 1350 nM |
| CSc1nc2cc(Cl)ccc2n1C | 37.2 nM |
| Cc1nc2ccc(Cl)cc2n1C | 204 nM |
| CSc1nc2cc(Cl)c(Cl)cc2n1C | 1050 nM |
| Cn1c(N)nc2ccc(Cl)cc21 | 245 nM |
| Cc1nc2cc(Cl)ccc2n1C | 5.01 nM |
| Cn1c(S)nc2cc(Cl)ccc21 | 10 nM |
| CSc1nc2ccc(Cl)cc2n1C | 575 nM |
| Cn1c(S)nc2ccccc21 | 6.03 nM |
| FC(F)(F)C(F)(F)c1nc2cc(Cl)c(Cl)cc2[nH]1 | 209 nM |
| FC(F)(F)C(F)(F)c1nc2c(Br)c(Br)c(Br)c(Br)c2[nH]1 | 214 nM |
| Cn1c(S)nc2ccc(Cl)cc21 | 3800 nM |
